Experimental data published in PubChem BioAssay AID328 (DTP/NCI, 2004).
Several values for one entry are separate records, joined by “and”; a condition that tells them apart may be missing. Equal entries are not always repeated. Toxic doses and inconclusive results are not listed. Rule for the calls: active = survival T/C of 150% or more; inactive = T/C below 125% in these data.

Test system: BDF1 mice, P388 leukemia ip, median survival T/C
Assay: NCI In Vivo Anticancer Drug Screen. Data for tumor model P388 Leukemia (intraperitoneal) in B6D2F1 (BDF1) mice
Settings: endpoint: median survival time, higher = longer survival
How it was run: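 In tumour-bearing mice, survival after compound treatment is set against the vehicle group and given as a quotient.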

[1] = dose: 100.0 mg/kg/injection, schedule: Q01DX009 (ip), vehicle: Klucel (hydroxypropylcellulose) (HPC)
[2] = dose: 100.0 mg/kg/injection, schedule: Q04DX003 (ip), vehicle: Klucel (hydroxypropylcellulose) (HPC)
[3] = dose: 200.0 mg/kg/injection, schedule: Q01DX009 (ip), vehicle: Klucel (hydroxypropylcellulose) (HPC)
[4] = dose: 200.0 mg/kg/injection, schedule: Q04DX003 (ip), vehicle: Klucel (hydroxypropylcellulose) (HPC)
[5] = dose: 50.0 mg/kg/injection, schedule: Q01DX009 (ip), vehicle: saline with Tween-80
[6] = dose: 50.0 mg/kg/injection, schedule: Q04DX003 (ip), vehicle: saline with Tween-80
[7] = dose: 100.0 mg/kg/injection, schedule: Q04DX003 (ip), vehicle: saline with Tween-80
[8] = dose: 200.0 mg/kg/injection, schedule: Q04DX003 (ip), vehicle: saline with Tween-80
[9] = dose: 12.5 mg/kg/injection, schedule: Q01DX009 (ip), vehicle: Klucel (hydroxypropylcellulose) (HPC)
[10] = dose: 50.0 mg/kg/injection, schedule: Q01DX009 (ip), vehicle: Klucel (hydroxypropylcellulose) (HPC)
[11] = dose: 100.0 mg/kg/injection, schedule: Q01DX009 (ip), vehicle: saline with Tween-80
[12] = dose: 200.0 mg/kg/injection, schedule: Q01DX009 (ip), vehicle: saline with Tween-80

Measured: T/C

OCC1C(CO)C2(Cl)C(Cl)=C(Cl)C1(Cl)C2(Cl)Cl (configuration not stated)
inactive: [1] 100 % of control | [2] 100 % of control | [3] 118 % of control | [4] 95 % of control | dose: 400.0 mg/kg/injection, schedule: Q01DX009 (ip), vehicle: Klucel (hydroxypropylcellulose) (HPC) 100 % of control | dose: 400.0 mg/kg/injection, schedule: Q04DX003 (ip), vehicle: Klucel (hydroxypropylcellulose) (HPC) 109 % of control

CCC1c2ccc3cc(OC)ccc3c2C(=O)CC1C(=O)O (configuration not stated)
inactive: dose: 100.0 mg/kg/injection, schedule: Q04DX003 (sc), vehicle: steriod suspending solution 113 % of control | dose: 200.0 mg/kg/injection, schedule: Q04DX003 (sc), vehicle: steriod suspending solution 100 % of control | dose: 400.0 mg/kg/injection, schedule: Q04DX003 (sc), vehicle: steriod suspending solution 95 % of control

CC1OC(O[C@@H]2C=C3CC[C@@H]4[C@H](CC[C@]5(C)[C@@H](c6ccc(=O)oc6)CC[C@]45O)[C@@]3(C)CC2)C(O)C(OC2OC(CO)C(O)C(O)C2O)C1O (some centres not stated)
inactive: dose: 0.8 mg/kg/injection, schedule: Q01DX010 (sc), vehicle: steriod suspending solution 100 % of control | dose: 1.6 mg/kg/injection, schedule: Q01DX010 (sc), vehicle: steriod suspending solution 95 % of control | dose: 2.0 mg/kg/injection, schedule: Q01DX010 (ip), vehicle: carboxymethylcellulose (CMC) 110 % of control | dose: 3.25 mg/kg/injection, schedule: Q01DX010 (sc), vehicle: steriod suspending solution 110 % of control | dose: 4.0 mg/kg/injection, schedule: Q01DX010 (ip), vehicle: carboxymethylcellulose (CMC) 100 % of control | dose: 7.5 mg/kg/injection, schedule: Q01DX010 (sc), vehicle: steriod suspending solution 115 % of control | dose: 8.0 mg/kg/injection, schedule: Q01DX010 (ip), vehicle: carboxymethylcellulose (CMC) 95 % of control | dose: 15.0 mg/kg/injection, schedule: Q01DX010 (sc), vehicle: steriod suspending solution 105 % of control | dose: 30.0 mg/kg/injection, schedule: Q01DX010 (sc), vehicle: steriod suspending solution 100 % of control

C1=CN(c2ccc(/C=C\c3ccnc4ccccc34)cc2)C=CN1c1ccc(/C=C\c2ccnc3ccccc23)cc1
inactive: [5] 119 % of control

CCN(CC)CCN1C(=O)CN=C(c2ccccn2)c2cc(Cl)ccc21
inactive: [6] 95 % of control | [7] 100 % of control | [8] 105 % of control

CNc1ccc(C(=O)O)c(Cl)c1
inactive: dose: 75.0 mg/kg/injection, schedule: Q04DX003 (ip), vehicle: saline 100 % of control | dose: 150.0 mg/kg/injection, schedule: Q04DX003 (ip), vehicle: saline 95 % of control | dose: 300.0 mg/kg/injection, schedule: Q04DX003 (ip), vehicle: saline 100 % of control

CC(=O)NN(c1ccccc1)c1ccccc1
inactive: dose: 50.0 mg/kg/injection, schedule: Q04DX003 (ip), vehicle: Klucel (hydroxypropylcellulose) (HPC) 112 % of control | [2] 91 % of control | [4] 108 % of control

CCCCCCC/C=C\c1cnc2nc(N)nc(N)c2n1
inactive: [7] 92 % of control | [8] 89 % of control | dose: 400.0 mg/kg/injection, schedule: Q04DX003 (ip), vehicle: saline with Tween-80 92 % of control

O=C1c2ccccc2C(=O)C(N2CCOCC2)C1Cl (configuration not stated)
inactive: dose: 3.0 mg/kg/injection, schedule: Q01DX009 (ip), vehicle: saline with Tween-80 98 % of control | dose: 6.0 mg/kg/injection, schedule: Q01DX009 (ip), vehicle: saline with Tween-80 97 % of control | dose: 12.0 mg/kg/injection, schedule: Q01DX009 (ip), vehicle: saline with Tween-80 100 % of control

CCC(C)n1ncc2c(N(C)C)ncnc21 (configuration not stated)
inactive: [9] 100 % of control | [10] 92 % of control and 95 % of control | [2] 95 % of control | [4] 120 % of control

COB(C1CCCCC1)C1CCCCC1
inactive: dose: 75.0 mg/kg/injection, schedule: Q01DX001 (ip), vehicle: saline 113 % of control | dose: 150.0 mg/kg/injection, schedule: Q01DX001 (ip), vehicle: saline 104 % of control | dose: 300.0 mg/kg/injection, schedule: Q01DX001 (ip), vehicle: saline 95 % of control

CC(C)(C)C(=O)/C=C/c1ccccc1
inactive: [5] 94 % of control | [11] 90 % of control | [12] 105 % of control

CCCNC(C)(C)C(SS)c1ccc(C(F)(F)F)cc1 (configuration not stated)
inactive: dose: 12.5 mg/kg/injection, schedule: Q04DX003 (ip), vehicle: other 100 % of control | dose: 25.0 mg/kg/injection, schedule: Q04DX003 (ip), vehicle: other 110 % of control | dose: 50.0 mg/kg/injection, schedule: Q04DX003 (ip), vehicle: other 105 % of control

NC(=O)C12CCCCC1CCC(=O)C2 (configuration not stated)
inactive: dose: 25.0 mg/kg/injection, schedule: Q04DX003 (ip), vehicle: saline sonified 105 % of control | dose: 50.0 mg/kg/injection, schedule: Q04DX003 (ip), vehicle: saline sonified 100 % of control | dose: 100.0 mg/kg/injection, schedule: Q04DX003 (ip), vehicle: saline sonified 95 % of control

Fc1ccc(CSc2ncnc3c2ncn3C2CCCCO2)cc1 (configuration not stated)
inactive: dose: 100.0 mg/kg/injection, schedule: Q04DX003 (ip), vehicle: other 100 % of control | [3] 100 % of control | dose: 200.0 mg/kg/injection, schedule: Q04DX003 (ip), vehicle: other 100 % of control | dose: 400.0 mg/kg/injection, schedule: Q04DX003 (ip), vehicle: other 105 % of control

COC1/C=C/OC2(C)Oc3c(C)c(O)c4c(O)c5c(c(O)c4c3C2=O)CN(C)C(=N5)/C(C)=C\C=C\C(C)C(O)C(C)C(O)C(C)C(OC(C)=O)C1C (configuration not stated)
inactive: dose: 100.0 mg/kg/injection, schedule: Q04DX002 (ip), vehicle: saline with Tween-80 97 % of control | dose: 200.0 mg/kg/injection, schedule: Q04DX002 (ip), vehicle: saline with Tween-80 97 % of control | dose: 400.0 mg/kg/injection, schedule: Q04DX002 (ip), vehicle: saline with Tween-80 116 % of control

CC12CCC(CC1)C(C)(C)O2
inactive: dose: 25.0 mg/kg/injection, schedule: Q01DX009 (ip), vehicle: saline 106 % of control | dose: 50.0 mg/kg/injection, schedule: Q01DX009 (ip), vehicle: saline 117 % of control | dose: 100.0 mg/kg/injection, schedule: Q01DX009 (ip), vehicle: saline 106 % of control | dose: 200.0 mg/kg/injection, schedule: Q01DX009 (ip), vehicle: saline 107 % of control

C/C(=N\N(C)C(=S)Nc1ccccc1)c1ccccn1
inactive: [5] 95 % of control | [11] 106 % of control | [12] 98 % of control

Nc1ccc(S(=O)(=O)c2cc(O)c3ccccc3c2O)cc1
inactive: dose: 6.25 mg/kg/injection, schedule: Q01DX009 (ip), vehicle: Klucel (hydroxypropylcellulose) (HPC) 118 % of control | [9] 104 % of control | dose: 25.0 mg/kg/injection, schedule: Q01DX009 (ip), vehicle: Klucel (hydroxypropylcellulose) (HPC) 122 % of control

SC1(SC2(S)CCCCC2)CCCCC1
inactive: [5] 100 % of control | [11] 100 % of control | [12] 100 % of control

O=C1NS(=O)(=O)c2ccccc21
inactive: [5] 100 % of control | [11] 90 % of control | [12] 103 % of control

O=S1(=O)CC2(N3CCOCC3)CCCCC21 (configuration not stated)
inactive: [11] 100 % of control | [12] 100 % of control | dose: 400.0 mg/kg/injection, schedule: Q01DX009 (ip), vehicle: saline with Tween-80 112 % of control

O=C(/C=C/c1c(Cl)cccc1Cl)c1ccccc1
inactive: [10] 97 % of control | [1] 105 % of control | [3] 97 % of control

Cc1nc2c(=O)n(C)c(=O)n(C)c2n1C
inactive: [6] 100 % of control | [7] 90 % of control | [8] 100 % of control
